From US20210024542A1 (Torcept Therapeutics, Inc., priority 2018, published 2021)

Experiments:
NCIH446 = assay: OncoPanel cell proliferation assay, NCIH446; type: cell-based, human; conditions: for Cell Count Activity Area: NCIH446, scale 0-10
Protocol: (§1) Cells were grown in RPMI 1640, 10% FBS, 2 mM L-alanyl-L-glutamine, 1 mM Na pyruvate, or a special medium. Cells were seeded into 384-well plates and incubated in a humidified atmosphere of 5% CO2 at 37° C. Compounds were added the day following cell seeding. At the same time, a time zero untreated cell plate was generated. After a 3-day incubation period, cells were fixed and stained to allow fluorescence imaging of nuclei. Compounds (1 mM stock solutions) were serially diluted in half-log steps from the highest test concentration ([…]), and assayed over 10 concentrations with a maximum assay concentration of 0.1% DMSO. Automated fluorescence microscopy was carried out using a Molecular Devices ImageXpress Micro XL high-content imager, and images were collected with a 4× objective. 16-bit TIFF images were acquired and analyzed with MetaXpress 5.1.0.41 software.
(§2) Cell proliferation was measured by the fluorescence intensity of an incorporated nuclear dye. The output is referred to as the relative cell count, where the measured nuclear intensity is transformed to percent of control (POC) using the following formula: […]
(§3) Cellular response parameters were calculated using nonlinear regression to a sigmoidal single-site dose response model:
(§4) Where y is a response measured at concentration x, A and B are the lower and upper limits of the response, C is the concentration at the response midpoint (EC50), and D is the Hill Slope (Ref. 1).
(§5) EC50 is the test compound concentration at the curve inflection point or half the effective response (parameter C of the fitted curve solution). GI50 is the concentration needed to reduce the observed growth by half (midway between the curve maximum and the time zero value). “Cell Count Activity Area” is an estimate of the integrated area above the curve (Barretina, et al. The Cancer Cell Line Encyclopedia enables predictive modelling of anticancer drug sensitivity. Nature 483: 603-607). […] In rare instances, values <0 or >10 may be observed. […] Curve-fitting, calculations, and report generation was performed using a custom data reduction engine and MathIQ based software (AIM).

Hs 729 = assay: OncoPanel cell proliferation assay, Hs 729; type: cell-based, human; conditions: for Cell Count Activity Area: Hs 729, scale 0-10
Protocol: as §1, §2, §3, §4, §5

786-O = assay: OncoPanel cell proliferation assay, 786-O; type: cell-based, human; conditions: 786-O, scale 0-10
Protocol: as §1, §2, §3, §4, §5

Hs 852.T = assay: OncoPanel cell proliferation assay, Hs 852.T; type: cell-based, human; conditions: for Cell Count Activity Area: scale 0-10
Protocol: as §1, §2, §3, §4, §5

A101D = assay: OncoPanel cell proliferation assay, A101D; type: cell-based, human; conditions: for Cell Count Activity Area: scale 0-10
Protocol: as §1, §2, §3, §4, §5

CaOV3 = assay: OncoPanel cell proliferation assay, CaOV3; type: cell-based, human; conditions: for Cell Count Activity Area: CaOV3, scale 0-10
Protocol: as §1, §2, §3, §4, §5

SK-MEL-28 = assay: OncoPanel cell proliferation assay, SK-MEL-28; type: cell-based, human; conditions: for Cell Count Activity Area: SK-MEL-28, scale 0-10
Protocol: as §1, §2, §3, §4, §5

ST486 = assay: OncoPanel cell proliferation assay, ST486; type: cell-based, human; conditions: for Cell Count Activity Area: ST486, scale 0-10
Protocol: as §1, §2, §3, §4, §5

TF-1 = assay: OncoPanel cell proliferation assay, TF-1; type: cell-based, human; conditions: for Cell Count Activity Area: TF-1, scale 0-10
Protocol: as §1, §2, §3, §4, §5

U-138MG = assay: OncoPanel cell proliferation assay, U-138MG; type: cell-based, human; conditions: U-138MG; for Cell Count Activity Area: scale 0-10
Protocol: as §1, §2, §3, §4, §5

U-87 MG = assay: OncoPanel cell proliferation assay, U-87 MG; type: cell-based, human; conditions: for Cell Count Activity Area: scale 0-10
Protocol: as §1, §2, §3, §4, §5

RKOE6 = assay: OncoPanel cell proliferation assay, RKOE6; conditions: RKOE6, scale 0-10
Protocol: (§6) Cells were seeded into 384-well plates and incubated in a humidified atmosphere of 5% CO2 at 37° C. Compounds were added the day following cell seeding. At the same time, a time zero untreated cell plate was generated. After a 3-day incubation period, cells were fixed and stained to allow fluorescence imaging of nuclei. Compounds (1 mM stock solutions) were serially diluted in half-log steps from the highest test concentration (1 micromol), and assayed over 10 concentrations with a maximum assay concentration of 0.1% DMSO. Automated fluorescence microscopy was carried out using a Molecular Devices ImageXpress Micro XL high-content imager, and images were collected with a 4× objective. 16-bit TIFF images were acquired and analyzed with MetaXpress 5.1.0.41 software.
(§7) GI50 is the concentration needed to reduce the observed growth by half (midway between the curve maximum and the time zero value). […] In rare instances, values <0 or >10 may be observed. […] Curve-fitting, calculations, and report generation was performed using a custom data reduction engine and MathIQ based software (AIM).

CHP-212 = assay: OncoPanel cell proliferation assay, CHP-212; conditions: for Cell Count Activity Area: CHP-212, scale 0-10
Protocol: as §6, §7

SK-NEP-1 = assay: OncoPanel cell proliferation assay, SK-NEP-1; conditions: SK-NEP-1, scale 0-10
Protocol: as §6, §7

[1] = Homo sapiens, 72 h, 3-day incubation, read-out: Cell Count IC50

SMILES | Cell Count Activity Area (NCIH446) | Cell Count Activity Area (Hs 729) | Cell Count Activity Area (786-O) | Cell Count Activity Area (Hs 852.T) | Cell Count Activity Area (A101D) | Cell Count Activity Area (CaOV3) | Cell Count Activity Area (SK-MEL-28) | Cell Count Activity Area (ST486) | Cell Count Activity Area (TF-1) | Cell Count Activity Area (U-138MG) | Cell Count Activity Area (U-87 MG) | Cell Count Activity Area (RKOE6) | Cell Count Activity Area (CHP-212) | Cell Count Activity Area (SK-NEP-1) | also measured
CO[C@H]1C[C@@H]2CC[C@@H](C)[C@@](O)(O2)C(=O)C(=O)N2CCCC[C@H]2C(=O)O[C@H]([C@H](C)C[C@@H]2CC[C@@H](O)[C@H](OC)C2)CC(=O)[C@H](C)/C=C(\C)[C@@H](O)[C@@H](OC)C(=O)[C@H](C)C[C@H](C)/C=C/C=C/C=C/1C [Rapamycin, reference compound] | 1.69 | 0.55 | 4.17 | 1.43 | 2.92 | 2.40 | 2.50 | 3.99 | 1.52 | 3.14 | 3.79 | 4.61 | 4.13 | 4.22 | EC50 (NCIH446; Homo sapiens, NCI-H446, 72 h, NCIH446, 3-day incubation, read-out: Cell Count EC50): > 1 µM; IC50 (NCIH446; Homo sapiens, NCI-H446, 72 h, NCIH446, 3-day incubation, read-out: Cell Count IC50): > 1 µM; EC50 (Hs 729; Homo sapiens, 72 h, Hs 729, 3-day incubation, read-out: Cell Count EC50): > 1 µM; GI50 (Hs 729; Homo sapiens, 72 h, Hs 729, 3-day incubation, read-out: Cell Count GI50): > 1 µM; IC50 (Hs 729; Homo sapiens, 72 h, Hs 729, 3-day incubation, read-out: Cell Count IC50): > 1 µM; EC50 (Hs 852.T; Homo sapiens, 72 h, 3-day incubation, read-out: Cell Count EC50): > 1 µM; GI50 (Hs 852.T; Homo sapiens, 72 h, 3-day incubation, read-out: Cell Count GI50): > 1 µM; IC50 (Hs 852.T; [1]): > 1 µM; IC50 (A101D; [1]): > 1 µM; EC50 (CaOV3; Homo sapiens, Caov-3, 72 h, CaOV3, 3-day incubation, read-out: Cell Count EC50): > 1 µM; GI50 (CaOV3; Homo sapiens, Caov-3, 72 h, CaOV3, 3-day incubation, read-out: Cell Count GI50): > 1 µM; IC50 (CaOV3; Homo sapiens, Caov-3, 72 h, CaOV3, 3-day incubation, read-out: Cell Count IC50): > 1 µM; IC50 (SK-MEL-28; Homo sapiens, 72 h, SK-MEL-28, 3-day incubation, read-out: Cell Count IC50): > 1 µM; IC50 (ST486; Homo sapiens, 72 h, ST486, 3-day incubation, read-out: Cell Count IC50): > 1 µM; EC50 (TF-1; Homo sapiens, 72 h, TF-1, 3-day incubation, read-out: Cell Count EC50): > 1 µM; GI50 (TF-1; Homo sapiens, 72 h, TF-1, 3-day incubation, read-out: Cell Count GI50): > 1 µM; IC50 (TF-1; Homo sapiens, 72 h, TF-1, 3-day incubation, read-out: Cell Count IC50): > 1 µM; IC50 (U-138MG; Homo sapiens, U138-MG, 72 h, 3-day incubation, read-out: Cell Count IC50): > 1 µM; IC50 (U-87 MG; [1]): > 1 µM; IC50 (CHP-212; Homo sapiens, CHP-212, 72 h, read-out: Cell Count IC50): > 1 µM
CN[C@@H]1C[C@H]2O[C@@](C)([C@@H]1OC)n1c3ccccc3c3c4c(c5c6ccccc6n2c5c31)C(=O)NC4 [Staurosporine, reference compound] | 2.81 | 4.06 | 4.87 | 3.16 | 4.56 | 5.31 | 2.81 | 4.89 | 3.31 | 3.72 | 3.25 | 3.96 | 4.80 | 2.78 | –
